{
  "source": "patent US7384950B2",
  "about": "“Thienopyrimidinediones and their use in the modulation of autoimmune disease” (AstraZeneca AB, priority 2001, dated 2008)",
  "system": "PMA/ionomycin-stimulated peripheral blood mononuclear cell (PBMC)",
  "assay": "Inhibition of PMA/ionomycin-stimulated peripheral blood mononuclear cell proliferation",
  "format": "cell-based",
  "details": "human PBMC from a single donor, 10% human serum, PMA 0.5 ng/ml and ionomycin 500 ng/ml, 72 hours, 3H-thymidine incorporation; read-out: IA50 (the source's name)",
  "procedure": "The ability of compounds which can inhibit PMA/ionomycin-stimulated peripheral blood mononuclear cell proliferation can be assessed, for example using the procedure set out below:\nInhibition of PMA/ionomycin-stimulated Peripheral Blood Mononuclear Cell Proliferation\nThe assay for PMA/ionomycin-stimulated PBMC proliferation was performed in 96-well flat bottomed microtitre plates. Compounds were prepared as 10 mM stock solutions in dimethyl sulfoxide. A 50-fold dilution of this was prepared in RPMI and serial dilutions were prepared from this solution. 10 μl of the 50-fold diluted stock, or dilutions of it, were added to the well to give concentrations in the assay starting at 9.5 μM and going down. Into each well was placed 1×10^5 PBMC, prepared from human peripheral blood from a single donor, in RPMI1640 medium supplemented with 10% human serum, 2 mM glutamine and penicillin/streptomycin. Phorbol myristate acetate (PMA) (0.5 ng/ml final concentration) and ionomycin (500 ng/ml final concentration) were added to these cells in supplemented RPMI1640 medium (as above) so that the final volume of the assay was 0.2 ml. […] The level of radioactivity incorporated by the cells was then determined and this is a measure of proliferation.",
  "data": [
    {"smiles": "CC(C)n1c(=O)n(C)c(=O)c2c(C(=O)N3C[C@H](O)CO3)c(Cc3ccnc4ccccc34)sc21", "note": "[Example 20, (S) 5-{4-Hydroxyisoxazolidin-2-ylcarbonyl}-3-methyl-1-(isopropyl)-6-(4-quinolinylmethyl)thieno[2,3-d]pyrimidine-2,4(1H,3H)-dione]", "values": [
      {"measurement": "IC50", "result": 5, "unit": "nM"}
    ]}
  ]
}
